From PubChem BioAssay AID248 (DTP/NCI, 2004)
Inconclusive results and toxic doses are left out. Rule as the data show it: active = T/C of 150% or more; inactive = T/C below 125%. Square brackets hold non-standard residues; d marks the D form. Peptide text beside a SMILES is read from it. * marks the point of attachment. ξ: configuration not given here. Tos = Cc1ccc(S(=O)(=O)*)cc1; ξS = NC(CO)C(=O)O

System: L1210 leukemia ip in BDF1 mice, survival T/C
Assay: NCI In Vivo Anticancer Drug Screen. Data for tumor model L1210 Leukemia (intraperitoneal) in B6D2F1 (BDF1) mice
Conditions: endpoint: mean survival time, higher = longer survival
Summary of the method: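 Read-out is survival time, reported as the treated-group measurement over the vehicle-control measurement.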

[1] = dose: 100.0 mg/kg/injection, schedule: Q01DX009 (ip), vehicle: saline with Tween-80
[2] = dose: 100.0 mg/kg/injection, schedule: Q04DX003 (ip), vehicle: saline with Tween-80
[3] = dose: 200.0 mg/kg/injection, schedule: Q04DX003 (ip), vehicle: saline with Tween-80
[4] = dose: 400.0 mg/kg/injection, schedule: Q04DX003 (ip), vehicle: saline with Tween-80
[5] = dose: 100.0 mg/kg/injection, schedule: Q01DX001 (ip), vehicle: carboxymethylcellulose (CMC)
[6] = dose: 200.0 mg/kg/injection, schedule: Q01DX001 (ip), vehicle: carboxymethylcellulose (CMC)
[7] = dose: 400.0 mg/kg/injection, schedule: Q01DX001 (ip), vehicle: carboxymethylcellulose (CMC)
[8] = dose: 100.0 mg/kg/injection, schedule: Q04DX003 (ip), vehicle: Klucel (hydroxypropylcellulose) (HPC)
[9] = dose: 200.0 mg/kg/injection, schedule: Q04DX003 (ip), vehicle: Klucel (hydroxypropylcellulose) (HPC)
[10] = dose: 400.0 mg/kg/injection, schedule: Q04DX003 (ip), vehicle: Klucel (hydroxypropylcellulose) (HPC)
[11] = dose: 100.0 mg/kg/injection, schedule: Q01DX009 (ip), vehicle: Klucel (hydroxypropylcellulose) (HPC)
[12] = dose: 200.0 mg/kg/injection, schedule: Q01DX009 (ip), vehicle: Klucel (hydroxypropylcellulose) (HPC)
[13] = dose: 400.0 mg/kg/injection, schedule: Q01DX009 (ip), vehicle: Klucel (hydroxypropylcellulose) (HPC)

Measured: T/C

CC12CCCCC1SC(F)(F)C2(F)F (stereo not given)
inactive: dose: 12.5 mg/kg/injection, schedule: Q01DX009 (ip), vehicle: saline with Tween-80 95 % of control | dose: 25.0 mg/kg/injection, schedule: Q01DX009 (ip), vehicle: saline with Tween-80 98 % of control

O=P(Oc1ccccc1)(Oc1ccccc1)Oc1ccccc1Cl
inactive: dose: 100.0 mg/kg/injection, schedule: Q01DX001 (ip), vehicle: saline 96 % of control | dose: 200.0 mg/kg/injection, schedule: Q01DX001 (ip), vehicle: saline 102 % of control | dose: 400.0 mg/kg/injection, schedule: Q01DX001 (ip), vehicle: saline 97 % of control

O=c1cc(-c2ccccc2)[nH]c(=S)[nH]1
inactive: [1] 94 % of control | [2] 101 % of control | [3] 103 % of control | dose: 400.0 mg/kg/injection, schedule: Q01DX009 (ip), vehicle: saline with Tween-80 89 % of control | [4] 106 % of control

CC1(C)CC=CC(COC(=O)c2ccccc2C(=O)O)C1 (stereo not given)
inactive: [5] 102 % of control | [6] 107 % of control | [7] 96 % of control

CN(NC(=O)c1ccccc1)c1ccccc1
inactive: [2] 96 % of control | [3] 107 % of control | [4] 105 % of control

CCN(CC)CCCC(C)Nc1cc(N)nc2nc(-c3ccc(Cl)cc3)cnc12 (stereo not given)
inactive: dose: 75.0 mg/kg/injection, schedule: Q01DX001 (ip), vehicle: saline 94 % of control | dose: 150.0 mg/kg/injection, schedule: Q01DX001 (ip), vehicle: saline 101 % of control

O=C(c1ccccc1)C1CCC(Cl)CC1 (stereo not given)
inactive: dose: 100.0 mg/kg/injection, schedule: Q01DX001 (ip), vehicle: other 96 % of control | dose: 200.0 mg/kg/injection, schedule: Q01DX001 (ip), vehicle: other 101 % of control | dose: 400.0 mg/kg/injection, schedule: Q01DX001 (ip), vehicle: other 102 % of control

CC1(c2ccccc2O)Nc2ccccc2S1 (stereo not given)
inactive: [2] 92 % of control | [3] 92 % of control | [4] 96 % of control

c1ccc(-c2cccc(-c3ccccc3)c2)cc1
inactive: [8] 93 % of control | [9] 108 % of control | [10] 90 % of control

CC/C(=C(\CC)c1ccc(OC)cc1)c1ccc(OC)cc1
inactive: dose: 50.0 mg/kg/injection, schedule: Q01DX009 (ip), vehicle: saline with Tween-80 100 % of control | [1] 89 % of control | dose: 200.0 mg/kg/injection, schedule: Q01DX009 (ip), vehicle: saline with Tween-80 89 % of control | dose: 200.0 mg/kg/injection, schedule: Q04DX003 (ip), vehicle: saline 87 % of control

CCN(CC)C(C)C(O)c1ccc2cc(Br)c3ccccc3c2c1 (stereo not given)
inactive: dose: 55.0 mg/kg/injection, schedule: Q01DX Z (ip), vehicle: methylcellulose (MC) 95 % of control | dose: 83.0 mg/kg/injection, schedule: Q01DX Z (ip), vehicle: methylcellulose (MC) 97 % of control | dose: 125.0 mg/kg/injection, schedule: Q01DX Z (ip), vehicle: methylcellulose (MC) 92 % of control

Cc1ccc(S(=O)(=O)NC(CO)C(=O)NCC(=O)O)cc1 (stereo not given) (Tos-[ξS]-Gly-OH)
inactive: dose: 100.0 mg/kg/injection, schedule: Q01DX009 (ip), vehicle: saline 103 % of control | dose: 200.0 mg/kg/injection, schedule: Q01DX009 (ip), vehicle: saline 97 % of control | dose: 400.0 mg/kg/injection, schedule: Q01DX009 (ip), vehicle: saline 91 % of control

COc1c(C)c(C)c(OC)c(CC(=O)O)c1C
inactive: [2] 93 % of control | [3] 90 % of control | [4] 93 % of control

CCCCCCC(=O)Nc1cccc(OC(=O)NC)c1
inactive: [2] 98 % of control | [3] 96 % of control | [4] 88 % of control

N#CCC1COc2ccccc2O1 (stereo not given)
inactive: [5] 92 % of control | [6] 97 % of control | [7] 100 % of control

COc1cc(C)c2oc(C)nc2c1
inactive: dose: 100.0 mg/kg/injection, schedule: Q01DX001 (ip), vehicle: Klucel (hydroxypropylcellulose) (HPC) 92 % of control | dose: 400.0 mg/kg/injection, schedule: Q01DX001 (ip), vehicle: Klucel (hydroxypropylcellulose) (HPC) 92 % of control

CCOC(=O)CNc1cc(Cl)cc(Cl)c1
inactive: dose: 100.0 mg/kg/injection, schedule: Q04DX002 (ip), vehicle: Klucel (hydroxypropylcellulose) (HPC) 100 % of control | dose: 200.0 mg/kg/injection, schedule: Q04DX002 (ip), vehicle: Klucel (hydroxypropylcellulose) (HPC) 96 % of control | dose: 400.0 mg/kg/injection, schedule: Q04DX002 (ip), vehicle: Klucel (hydroxypropylcellulose) (HPC) 96 % of control

c1ccc(-c2c(-c3ccccc3)c(-c3ccccc3)c(-c3ccccc3)c(-c3ccccc3)c2-c2ccccc2)cc1
inactive: dose: 25.0 mg/kg/injection, schedule: Q01DX009 (ip), vehicle: water 104 % of control | dose: 50.0 mg/kg/injection, schedule: Q01DX009 (ip), vehicle: water 102 % of control | dose: 100.0 mg/kg/injection, schedule: Q01DX009 (ip), vehicle: water 96 % of control | dose: 200.0 mg/kg/injection, schedule: Q01DX009 (ip), vehicle: water 100 % of control | dose: 400.0 mg/kg/injection, schedule: Q01DX009 (ip), vehicle: water 97 % of control

CCOC(=O)c1ccc(NC(=S)Nc2ccccc2)cc1N(CC)CC
inactive: [11] 101 % of control | [12] 97 % of control | [13] 104 % of control

COc1cc2c(cc1NC(C)=O)C(=O)CCCC2
inactive: dose: 50.0 mg/kg/injection, schedule: Q01DX009 (ip), vehicle: other 92 % of control | dose: 100.0 mg/kg/injection, schedule: Q01DX009 (ip), vehicle: other 95 % of control | dose: 200.0 mg/kg/injection, schedule: Q01DX009 (ip), vehicle: other 92 % of control

Cc1c(C)c(CC#N)c(C)c(C)c1CC#N
inactive: [11] 86 % of control | [8] 91 % of control | [12] 88 % of control | [9] 88 % of control | [10] 94 % of control

Cc1ccc(/C=C/[N+](=O)[O-])cc1
inactive: dose: 6.25 mg/kg/injection, schedule: Q01DX009 (ip), vehicle: saline sonified 100 % of control | dose: 6.25 mg/kg/injection, schedule: Q04DX003 (ip), vehicle: Klucel (hydroxypropylcellulose) (HPC) 97 % of control | dose: 12.5 mg/kg/injection, schedule: Q01DX009 (ip), vehicle: saline sonified 101 % of control | dose: 12.5 mg/kg/injection, schedule: Q04DX003 (ip), vehicle: Klucel (hydroxypropylcellulose) (HPC) 97 % of control | dose: 25.0 mg/kg/injection, schedule: Q01DX009 (ip), vehicle: saline sonified 101 % of control | dose: 25.0 mg/kg/injection, schedule: Q04DX003 (ip), vehicle: Klucel (hydroxypropylcellulose) (HPC) 93 % of control

Cn1nc(N)c2cc(C(N)=O)c(N)nc21
inactive: [11] 88 % of control | [8] 96 % of control | [9] 100 % of control | [13] 90 % of control | [10] 97 % of control

CCCCCCCCCCNC(C1=C(O)c2ccccc2C(=O)C1=O)c1ccccc1 (stereo not given)
inactive: dose: 25.0 mg/kg/injection, schedule: Q01DX001 (ip), vehicle: saline with Tween-80 89 % of control | dose: 100.0 mg/kg/injection, schedule: Q01DX001 (ip), vehicle: saline with Tween-80 89 % of control | dose: 400.0 mg/kg/injection, schedule: Q01DX001 (ip), vehicle: saline with Tween-80 86 % of control

CC(=O)C1C=NCCN=CC(C(C)=O)C(C)=NCCCN=C1C.[Ni] (stereo not given)
inactive: dose: 50.0 mg/kg/injection, schedule: Q01DX009 (ip), vehicle: Klucel (hydroxypropylcellulose) (HPC) 101 % of control | [11] 105 % of control | [8] 100 % of control | [12] 103 % of control | [9] 95 % of control | [10] 106 % of control

Cc1c[n+]2c3ccccc3c3ccccc3c2s1
inactive: dose: 5.0 mg/kg/injection, schedule: Q01DX009 (ip), vehicle: Klucel (hydroxypropylcellulose) (HPC) 114 % of control | dose: 10.0 mg/kg/injection, schedule: Q01DX001 (ip), vehicle: saline 105 % of control | dose: 10.0 mg/kg/injection, schedule: Q01DX009 (ip), vehicle: Klucel (hydroxypropylcellulose) (HPC) 118 % of control | dose: 10.0 mg/kg/injection, schedule: Q04DX003 (ip), vehicle: Klucel (hydroxypropylcellulose) (HPC) 94 % of control | dose: 20.0 mg/kg/injection, schedule: Q01DX001 (ip), vehicle: saline 100 % of control | dose: 20.0 mg/kg/injection, schedule: Q01DX009 (ip), vehicle: Klucel (hydroxypropylcellulose) (HPC) 123 % of control | dose: 20.0 mg/kg/injection, schedule: Q04DX003 (ip), vehicle: Klucel (hydroxypropylcellulose) (HPC) 97 % of control | dose: 40.0 mg/kg/injection, schedule: Q01DX001 (ip), vehicle: saline 98 % of control
